# Assay results reported in article PMC11233931, “Remodeling tumor‐associated macrophage for anti‐cancer effects by rational design of irreversible inhibition of mitogen‐activated protein kinase‐activated protein kinase 2” (MedComm, 2024).
# Read-outs that look alike come from different tables or passages of the source.
# How the values were obtained:
# Test in all cases: Eurofins kinase selectivity profile against 380 other human recombinant kinases (Table S2)
# Type in all cases: biochemical
# [1] = molecular target: T1, 380 human recombinant protein kinases (Homo sapiens, UniProt P05771); conditions: PKCβI(h), read-out: Inhibition rate
# T1 construct: purchased Eurofins (Celle Lévescault)
# Summary of the method: (§1)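 Outsourced panel: 380 human recombinant kinases; inhibitor tested at various concentrations; purpose: MK2 selectivity check.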
# [2] = molecular target: T2, 380 human recombinant protein kinases (Homo sapiens, UniProt P24941); conditions: read-out: Inhibition rate; for inhibition at 0.01 µM: 10 nM; for inhibition at 0.1 µM: 100 nM; for inhibition at 1 µM: 1000 nM
# T2 construct: purchased Eurofins (Celle Lévescault)
# Summary of the method: as §1
# [3] = molecular target: T3, 380 human recombinant protein kinases (Homo sapiens, UniProt P78527); conditions: DNA-PK(h), read-out: Inhibition rate (%)
# T3 construct: purchased Eurofins (Celle Lévescault)
# Summary of the method: as §1
# [4] = molecular target: T4, 380 human recombinant protein kinases (Homo sapiens, UniProt Q6PHR2); conditions: ULK3(h), read-out: Inhibition rate (%)
# T4 construct: purchased Eurofins (Celle Lévescault)
# T4 sequence (Q6PHR2 1-472): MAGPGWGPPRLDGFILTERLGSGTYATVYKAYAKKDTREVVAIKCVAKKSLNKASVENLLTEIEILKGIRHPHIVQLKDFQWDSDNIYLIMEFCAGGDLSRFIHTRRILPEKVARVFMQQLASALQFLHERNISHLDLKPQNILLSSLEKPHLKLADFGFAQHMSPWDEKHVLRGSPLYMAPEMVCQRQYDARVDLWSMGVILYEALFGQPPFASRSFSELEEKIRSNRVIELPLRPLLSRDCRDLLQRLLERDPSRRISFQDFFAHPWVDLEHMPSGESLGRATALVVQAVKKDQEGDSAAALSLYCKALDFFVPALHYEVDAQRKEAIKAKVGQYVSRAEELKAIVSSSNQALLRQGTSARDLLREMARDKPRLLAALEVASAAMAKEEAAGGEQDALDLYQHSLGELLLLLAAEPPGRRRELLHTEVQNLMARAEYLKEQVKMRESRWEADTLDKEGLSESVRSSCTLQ
# Summary of the method: as §1
# [5] = molecular target: T5, 380 human recombinant protein kinases (Homo sapiens, UniProt Q99986); conditions: VRK1(h), read-out: Inhibition rate (%)
# T5 construct: purchased Eurofins (Celle Lévescault)
# T5 sequence (Q99986 1-396): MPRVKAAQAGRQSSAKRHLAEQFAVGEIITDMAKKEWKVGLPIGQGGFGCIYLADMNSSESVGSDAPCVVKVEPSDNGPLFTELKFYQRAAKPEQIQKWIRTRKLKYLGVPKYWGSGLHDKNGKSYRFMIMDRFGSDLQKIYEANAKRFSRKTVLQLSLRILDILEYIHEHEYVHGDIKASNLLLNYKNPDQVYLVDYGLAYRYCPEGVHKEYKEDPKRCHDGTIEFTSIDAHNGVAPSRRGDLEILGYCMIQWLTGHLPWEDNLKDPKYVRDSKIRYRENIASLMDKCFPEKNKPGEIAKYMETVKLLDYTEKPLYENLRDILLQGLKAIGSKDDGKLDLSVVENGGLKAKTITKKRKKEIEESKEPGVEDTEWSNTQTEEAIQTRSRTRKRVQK
# Summary of the method: as §1
# [6] = molecular target: T6, 380 human recombinant protein kinases (Homo sapiens, UniProt Q9NRH2); conditions: SNRK(h), read-out: Inhibition rate (%)
# T6 construct: purchased Eurofins (Celle Lévescault)
# T6 sequence (Q9NRH2 1-765): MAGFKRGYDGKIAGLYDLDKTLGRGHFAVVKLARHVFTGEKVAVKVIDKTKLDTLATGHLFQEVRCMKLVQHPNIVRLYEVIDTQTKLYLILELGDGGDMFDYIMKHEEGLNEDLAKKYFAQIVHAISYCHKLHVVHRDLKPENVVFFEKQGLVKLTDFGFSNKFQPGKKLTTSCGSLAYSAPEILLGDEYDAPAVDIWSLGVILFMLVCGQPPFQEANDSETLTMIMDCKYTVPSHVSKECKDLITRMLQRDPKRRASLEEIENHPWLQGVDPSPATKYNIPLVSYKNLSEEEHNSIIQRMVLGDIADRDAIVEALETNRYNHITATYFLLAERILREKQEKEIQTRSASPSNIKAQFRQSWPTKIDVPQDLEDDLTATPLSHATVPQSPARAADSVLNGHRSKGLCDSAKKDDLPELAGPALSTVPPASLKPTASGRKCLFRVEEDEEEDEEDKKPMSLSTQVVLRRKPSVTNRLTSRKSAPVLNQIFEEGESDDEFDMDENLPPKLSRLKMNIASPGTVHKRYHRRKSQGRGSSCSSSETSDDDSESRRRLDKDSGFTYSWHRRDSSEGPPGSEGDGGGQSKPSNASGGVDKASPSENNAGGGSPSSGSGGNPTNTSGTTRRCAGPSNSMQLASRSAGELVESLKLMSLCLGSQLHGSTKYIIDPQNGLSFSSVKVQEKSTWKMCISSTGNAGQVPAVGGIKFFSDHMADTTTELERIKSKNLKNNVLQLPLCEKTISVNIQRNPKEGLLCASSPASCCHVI
# Summary of the method: as §1
# [7] = molecular target: T7, 380 human recombinant protein kinases (Homo sapiens, UniProt Q9Y243); conditions: PKBγ(h), read-out: Inhibition rate
# T7 construct: purchased Eurofins (Celle Lévescault)
# Summary of the method: as §1
# T3 sequence (P78527 whole entry): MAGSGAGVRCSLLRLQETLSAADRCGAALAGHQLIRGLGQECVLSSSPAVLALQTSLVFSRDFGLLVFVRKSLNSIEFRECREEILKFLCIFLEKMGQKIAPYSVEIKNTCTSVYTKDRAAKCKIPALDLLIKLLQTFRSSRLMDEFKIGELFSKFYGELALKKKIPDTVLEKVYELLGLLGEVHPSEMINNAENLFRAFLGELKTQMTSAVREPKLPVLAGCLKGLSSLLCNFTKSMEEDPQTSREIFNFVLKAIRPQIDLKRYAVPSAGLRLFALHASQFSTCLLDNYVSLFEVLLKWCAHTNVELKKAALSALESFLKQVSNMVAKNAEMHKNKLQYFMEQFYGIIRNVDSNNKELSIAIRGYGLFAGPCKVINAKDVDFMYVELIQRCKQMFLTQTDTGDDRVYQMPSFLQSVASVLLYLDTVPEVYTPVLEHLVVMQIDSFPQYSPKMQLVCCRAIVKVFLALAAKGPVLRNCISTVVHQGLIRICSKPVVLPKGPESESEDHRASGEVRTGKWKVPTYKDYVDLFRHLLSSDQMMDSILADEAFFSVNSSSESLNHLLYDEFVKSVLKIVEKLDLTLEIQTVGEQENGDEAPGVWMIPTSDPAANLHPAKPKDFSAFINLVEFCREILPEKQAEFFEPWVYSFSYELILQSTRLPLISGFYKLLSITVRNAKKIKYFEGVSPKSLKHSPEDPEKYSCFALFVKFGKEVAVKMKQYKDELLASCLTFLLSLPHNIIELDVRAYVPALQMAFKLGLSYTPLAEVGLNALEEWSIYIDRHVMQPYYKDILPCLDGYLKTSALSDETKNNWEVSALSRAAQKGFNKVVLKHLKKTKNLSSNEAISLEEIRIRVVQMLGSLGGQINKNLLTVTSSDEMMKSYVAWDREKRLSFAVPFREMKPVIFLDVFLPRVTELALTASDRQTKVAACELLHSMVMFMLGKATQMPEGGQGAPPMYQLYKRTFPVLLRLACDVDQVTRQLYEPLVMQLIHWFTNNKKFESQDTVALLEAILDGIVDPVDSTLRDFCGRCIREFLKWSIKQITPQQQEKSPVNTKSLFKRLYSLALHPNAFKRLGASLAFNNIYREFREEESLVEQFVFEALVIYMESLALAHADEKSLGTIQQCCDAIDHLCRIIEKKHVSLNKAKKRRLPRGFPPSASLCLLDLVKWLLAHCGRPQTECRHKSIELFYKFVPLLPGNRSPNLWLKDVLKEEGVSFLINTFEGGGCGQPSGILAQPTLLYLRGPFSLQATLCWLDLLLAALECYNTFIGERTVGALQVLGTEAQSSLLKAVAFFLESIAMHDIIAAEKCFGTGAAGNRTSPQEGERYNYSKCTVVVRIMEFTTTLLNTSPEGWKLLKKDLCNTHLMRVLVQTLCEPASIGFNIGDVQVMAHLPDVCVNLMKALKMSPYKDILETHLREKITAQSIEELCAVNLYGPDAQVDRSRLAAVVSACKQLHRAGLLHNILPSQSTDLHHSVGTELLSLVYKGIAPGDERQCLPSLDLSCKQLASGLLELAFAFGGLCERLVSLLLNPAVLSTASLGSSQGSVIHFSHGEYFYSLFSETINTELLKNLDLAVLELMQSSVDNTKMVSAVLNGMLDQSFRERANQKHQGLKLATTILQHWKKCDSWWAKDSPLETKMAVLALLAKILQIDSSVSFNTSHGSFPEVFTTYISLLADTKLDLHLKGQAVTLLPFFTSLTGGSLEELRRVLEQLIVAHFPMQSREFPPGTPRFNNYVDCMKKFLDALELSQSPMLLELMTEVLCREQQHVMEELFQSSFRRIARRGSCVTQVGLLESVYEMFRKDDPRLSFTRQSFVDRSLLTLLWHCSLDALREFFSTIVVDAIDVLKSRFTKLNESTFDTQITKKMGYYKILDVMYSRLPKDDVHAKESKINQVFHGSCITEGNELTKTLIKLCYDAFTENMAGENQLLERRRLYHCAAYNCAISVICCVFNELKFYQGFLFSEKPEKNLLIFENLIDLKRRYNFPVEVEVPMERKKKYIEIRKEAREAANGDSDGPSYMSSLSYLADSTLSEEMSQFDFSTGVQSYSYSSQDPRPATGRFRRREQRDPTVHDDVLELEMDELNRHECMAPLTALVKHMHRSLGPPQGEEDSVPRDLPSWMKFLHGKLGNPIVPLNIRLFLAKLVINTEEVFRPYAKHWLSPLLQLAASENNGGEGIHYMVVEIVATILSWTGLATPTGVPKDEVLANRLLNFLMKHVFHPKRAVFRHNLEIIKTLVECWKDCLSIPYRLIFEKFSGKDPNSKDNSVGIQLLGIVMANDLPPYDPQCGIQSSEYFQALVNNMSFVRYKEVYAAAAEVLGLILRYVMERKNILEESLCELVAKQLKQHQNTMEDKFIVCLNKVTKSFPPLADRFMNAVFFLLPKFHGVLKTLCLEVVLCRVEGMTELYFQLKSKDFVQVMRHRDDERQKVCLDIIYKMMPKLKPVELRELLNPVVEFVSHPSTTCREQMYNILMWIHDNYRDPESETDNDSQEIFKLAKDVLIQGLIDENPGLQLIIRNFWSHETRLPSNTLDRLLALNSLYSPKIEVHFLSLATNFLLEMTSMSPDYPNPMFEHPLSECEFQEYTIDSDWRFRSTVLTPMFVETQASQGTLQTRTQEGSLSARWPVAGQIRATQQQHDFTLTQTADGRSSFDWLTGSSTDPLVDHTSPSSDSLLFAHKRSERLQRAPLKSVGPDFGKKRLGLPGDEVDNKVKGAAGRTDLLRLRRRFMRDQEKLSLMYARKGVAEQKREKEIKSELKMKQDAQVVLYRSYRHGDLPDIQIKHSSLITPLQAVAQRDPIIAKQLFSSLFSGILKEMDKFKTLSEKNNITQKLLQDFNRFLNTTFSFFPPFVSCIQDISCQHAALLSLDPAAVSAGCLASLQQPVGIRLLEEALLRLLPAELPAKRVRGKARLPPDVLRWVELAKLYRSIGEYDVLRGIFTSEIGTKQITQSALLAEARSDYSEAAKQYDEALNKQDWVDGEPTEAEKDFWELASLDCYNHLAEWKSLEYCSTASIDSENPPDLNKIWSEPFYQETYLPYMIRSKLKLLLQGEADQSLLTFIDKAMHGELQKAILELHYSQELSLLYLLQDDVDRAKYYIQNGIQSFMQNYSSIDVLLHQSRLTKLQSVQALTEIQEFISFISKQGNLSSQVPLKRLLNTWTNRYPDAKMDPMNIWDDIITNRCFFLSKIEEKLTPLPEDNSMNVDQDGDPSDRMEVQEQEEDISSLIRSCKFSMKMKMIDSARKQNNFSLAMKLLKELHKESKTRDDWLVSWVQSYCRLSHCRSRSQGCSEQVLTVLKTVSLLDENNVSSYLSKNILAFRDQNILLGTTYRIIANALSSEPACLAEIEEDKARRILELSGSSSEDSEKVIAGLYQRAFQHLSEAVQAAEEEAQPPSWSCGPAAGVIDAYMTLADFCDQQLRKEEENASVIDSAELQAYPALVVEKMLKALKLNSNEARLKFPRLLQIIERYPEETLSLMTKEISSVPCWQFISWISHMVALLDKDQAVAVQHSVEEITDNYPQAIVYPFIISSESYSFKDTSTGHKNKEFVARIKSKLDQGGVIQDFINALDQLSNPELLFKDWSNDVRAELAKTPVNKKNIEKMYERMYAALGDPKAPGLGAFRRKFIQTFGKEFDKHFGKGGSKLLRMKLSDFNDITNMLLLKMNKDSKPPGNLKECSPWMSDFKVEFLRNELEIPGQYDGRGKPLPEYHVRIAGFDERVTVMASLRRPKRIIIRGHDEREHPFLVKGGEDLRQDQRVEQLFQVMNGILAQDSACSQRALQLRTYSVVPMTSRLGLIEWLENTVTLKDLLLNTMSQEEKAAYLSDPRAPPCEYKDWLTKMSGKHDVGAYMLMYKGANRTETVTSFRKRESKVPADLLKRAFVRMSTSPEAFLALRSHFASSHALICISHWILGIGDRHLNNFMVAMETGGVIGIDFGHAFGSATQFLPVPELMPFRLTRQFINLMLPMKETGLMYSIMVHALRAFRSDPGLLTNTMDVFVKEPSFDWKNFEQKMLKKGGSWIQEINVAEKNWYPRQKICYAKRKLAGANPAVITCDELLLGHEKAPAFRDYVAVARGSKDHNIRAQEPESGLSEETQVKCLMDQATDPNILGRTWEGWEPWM
# T7 sequence (Q9Y243 whole entry): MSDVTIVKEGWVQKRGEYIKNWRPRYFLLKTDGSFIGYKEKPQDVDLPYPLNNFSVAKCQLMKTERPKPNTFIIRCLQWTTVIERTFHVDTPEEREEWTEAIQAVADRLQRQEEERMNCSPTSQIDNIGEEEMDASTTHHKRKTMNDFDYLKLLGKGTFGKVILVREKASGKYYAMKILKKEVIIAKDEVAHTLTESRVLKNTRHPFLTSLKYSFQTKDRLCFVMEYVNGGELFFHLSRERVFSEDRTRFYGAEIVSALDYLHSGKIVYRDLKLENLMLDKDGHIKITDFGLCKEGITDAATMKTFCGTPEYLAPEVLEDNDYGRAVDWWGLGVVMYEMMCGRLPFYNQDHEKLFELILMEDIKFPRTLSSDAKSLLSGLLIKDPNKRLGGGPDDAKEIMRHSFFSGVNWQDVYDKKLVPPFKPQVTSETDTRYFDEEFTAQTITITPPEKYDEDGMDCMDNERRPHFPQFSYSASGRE
smiles,measurement,setting,value
C=CC(=O)Nc1cc(-c2cc(-c3cc4c([nH]3)CCNC4=O)ccn2)ccc1OC(F)(F)F [compound 11],inhibition at 0.01 µM,[1]; 10 nM,3%
same,inhibition at 0.1 µM,[1]; 100 nM,1%
same,inhibition at 1 µM,[1]; 1000 nM,-13%
same,inhibition at 0.01 µM,[2]; CDK2/cyclinA(h),-5%
same,inhibition at 0.1 µM,[2]; CDK2/cyclinA(h),0%
same,inhibition at 1 µM,[2]; CDK2/cyclinA(h),7%
same,inhibition at 0.01 µM,[2]; CDK2/cyclinE(h),-3%
same,inhibition at 0.1 µM,[2]; CDK2/cyclinE(h),1%
same,inhibition at 1 µM,[2]; CDK2/cyclinE(h),-1%
same,inhibition at 0.01 µM,[3]; 10 nM,-1%
same,inhibition at 0.1 µM,[3]; 100 nM,2%
same,inhibition at 1 µM,[3]; 1000 nM,3%
same,inhibition at 0.01 µM,[4]; 10 nM,8%
same,inhibition at 0.1 µM,[4]; 100 nM,3%
same,inhibition at 1 µM,[4]; 1000 nM,-4%
same,inhibition at 0.01 µM,[5]; 10 nM,1%
same,inhibition at 0.1 µM,[5]; 100 nM,1%
same,inhibition at 1 µM,[5]; 1000 nM,5%
same,inhibition at 0.01 µM,[6]; 10 nM,4%
same,inhibition at 0.1 µM,[6]; 100 nM,4%
same,inhibition at 1 µM,[6]; 1000 nM,9%
same,inhibition at 0.01 µM,[7]; 10 nM,0%
same,inhibition at 0.1 µM,[7]; 100 nM,3%
same,inhibition at 1 µM,[7]; 1000 nM,9%
